# Source: US10416163B2, “Method and treatment of recurring endometrial cancer with an inhibitor of USP14” (Regents of the University of Minnesota, priority 2016, dated 2019)
# Read-outs that look alike come from different tables or passages of the source.
# Experiments:
# [1] = test system: cisplatin resistant ovarian cancer cell lines HEY and OVCA-3 and primary cells from patients with recurrent and resistant disease; experiment: Cell viability (XTT) of chemoresistant ovarian cancer cells exposed to USP14 inhibitor; assay type: cell-based, human; conditions: increasing concentrations, 48 hours
# Method: Inhibition of USP14 selectively kills ovarian cancer cell lines resistant to cisplatin and primary ovarian cancer cells derived from patients with recurrent and chemoresistant disease. Sensitivity to inhibition of USP14 was evaluated in exponentially growing human fibroblasts, in the exponentially growing cisplatin resistant ovarian cancer cell lines HEY and OVCA-3 and in two exponentially growing primary cells derived from patient with recurrent and resistant (to carboplatin) disease. Primary cells were obtained according to a method recently described in two manuscripts.
# ovarian cancer cells = experiment: Active caspase-3 levels in ovarian cancer cells; assay type: cell-based; conditions: increasing concentrations
# [2] = test system: ECC1 endometrial cancer cells; experiment: Apoptosis by flow cytometry (active caspase-3, Annexin V, propidium iodide), ECC1; assay type: cell-based
# Method: (§1) Cell cycle status following treatment with drug or vehicle alone was determined via flow cytometry analysis. Specifically, cells were harvested at indicated time points and fixed in 70% ethanol on ice for 2 hours. Following washing with PBS, cells were stained with 0.1% (m/v) propidium iodide in PBS-T. Apoptosis was measured using antibodies against active Caspase-3 (BD Pharmingen) or Annexin V (BD Pharmingen) which were combined with propidium iodide staining (Sigma-Aldrich). For apoptosis assays, samples were fixed and stained according to manufacturer's instructions. Fluorescence was measured with a FACSCantoII flow cytometer (Becton Dickinson) and analyzed with FlowJo software.
# (§2) Next, the fate of ECC1 and HEC155 endometrial cancer cells following VLX1570-induced cell cycle arrest was evaluated. Specifically, it was tested whether the reduction in cell viability following drug treatment is consistent with onset of apoptosis. The expression levels of active caspase-3 in control versus VLX1570 treated cells was measured. Importantly, caspase-3 is an active cell-death protease involved in the execution phase of apoptosis, where cells undergo morphological changes such as DNA fragmentation, chromatin condensation and apoptotic body formation.
# (§3) Similarly, the fraction of cells taking up propidium iodide, a feature of both advanced apoptosis and necrosis, is elevated in […]. These findings support the hypothesis that pharmacological inhibition of USP14 triggers apoptosis in endometrial cancer cells.
# [3] = test system: ubiquitin-dependent protein degradation in ECC1 cells; experiment: Western blot for accumulation of poly-ubiquitinated proteins, ECC1; assay type: cell-based
# Method: (§4) Total cellular protein (10-20 μg) from each sample was separated by SDS-PAGE, transferred to PVDF membranes and subjected to Western blot analysis. Antibodies for Western blot analysis were obtained by the following commercial sources: anti-USP14 (Bethyl Laboratories), anti-ubiquitin (Santa Cruz Biotechnology), anti-β-actin (Sigma). Peroxidase-linked anti-mouse Immunoglobulin G and peroxidase-linked anti-rabbit Immunoglobulin G were from Amersham.
# (§5) USP14 is a proteasome-associated deubiquitinating enzyme whose role is to remove ubiquitin molecules from targeted proteins prior to degradation by the 20S catalytic activities of the proteasome. […] Thus, the consequences of USP14 inhibition on ubiquitin-dependent protein degradation in endometrial cancer cells was investigated. To this end, ECC1 and HEC155 cells were exposed to 150 nM or 250 nM VLX1570, respectively, over a period of 24 hours and the effect on cellular protein ubiquitination was evaluated by Western blot analysis after 0, 2, 8 or 12 hours from drug exposure. […] Quantifications of the changes in high molecular weight ubiquitin species in each respective cell line, versus control, are given in FIGS. 5B and 5D (top panels).
# (§6) Next, endometrial cancer cell lines were exposed to increasing concentrations of VLX1570 ([…] for ECC1 and HEC155, respectively) over a period of 24 hours. The effect on accumulation of poly-ubiquitinated proteins was evaluated by Western blot. […] Quantifications of the changes in high-molecular weight ubiquitin species in dose-dependent fashion are given in FIGS. 5B and 5D (bottom panels).
# [4] = test system: ES-2 ovarian cancer cells; experiment: Cell viability of sensitive and carboplatin-resistant ES-2; assay type: cell-based
# Method: (§7) FIG. 11. COV362 and ES-2 carboplatin-resistant clones. Residual cell viability of sensitive and resistant COV362 and ES-2 ovarian cancer cells exposed to the indicated concentrations of carboplatin over a period of 48 hours.
# (§8) FIG. 12. Carboplatin resistant COV362 and ES-2 ovarian cancer cells are sensitive to USP14 inhibition. Residual cell viability of resistant COV362 and ES-2 ovarian cancer cells exposed to the indicated concentrations of the FDA approved USP14 inhibitor VLX1570 over a period of 48 hours. The structure of VLX1570 is:
# (§9) Carboplatin-resistant ovarian cancer cell lines are sensitive to pharmacological inhibition of USP14. Two ovarian cancer cell lines, COV-362 and ES-2 were exposed to carboplatin according to the method described in FIG. 9 and the resulting USP14 overexpressing clones were subjected to cell viability assay to assess the extent of chemoresistance. […] Next, the sensitivity of COV362 and ES-2 resistant clones to the FDA approved USP14 inhibitor VLX1570 was determined.
# [5] = test system: ECC1 endometrial cancer cells; experiment: Cell cycle distribution by propidium iodide flow cytometry, ECC1; assay type: cell-based; conditions: ECC1, 300 nM, 24 hours
# Method: as §1
# (§10) The USP14 modulates levels of cell cycle regulatory proteins whose dysregulation is expected to affect the cell cycle. This is further supported by the findings showing a strong correlation between USP14 and Ki67 staining in clinical specimens of endometrial cancer. Thus, the hypothesis that inhibition of USP14 would result in endometrial cancer cells failing to progress through the cell cycle was tested. To this end, HEC155 and ECC1 endometrial cancer cells were incubated with the USP14 inhibitor VLX1570 over a period of 24 hours and the cell cycle status was analyzed by flow cytometry after staining with propidium iodide. […]
# [6] = test system: HEC155 endometrial cancer cells; experiment: Apoptosis by flow cytometry (active caspase-3, Annexin V, propidium iodide), HEC155; assay type: cell-based
# Method: as §1, §2, §3
# [7] = test system: COV362 ovarian cancer cells; experiment: Cell viability of sensitive and carboplatin-resistant COV362; assay type: cell-based
# Method: as §7, §8, §9
# [8] = test system: HEC155 endometrial cancer cell line; experiment: Cell viability assay (WST-1), HEC155; assay type: cell-based; conditions: for IC50: HEC155, 48 hours exposure
# Method: (§11) Cell viability was determined by 2,3-bis[2-methoxy-4-nitro-5-sulfophenyl]-2H-tetrazolium-5-carboxanilide inner salt assay as previously described. Briefly, cells were seeded at the concentration of 1.000 per well in 100 μL medium in 96-well plate and treated with the indicated concentrations of drugs. At the indicated time points, cells were incubated according to the manufacturer's protocol with the WST-1 labeling mixture for 2 hours. Formazan dye was quantified using a spectrophotometric plate reader to measure the absorbance at 450 nm (ELISA reader 190; Molecular Devices).
# (§12) The next step was to investigate whether USP14 is a molecular target for endometrial cancer cells. To this end, the expression levels of USP14 in a panel of endometrial cancer cell lines including HEC155, EFE184 and ECC1 was first measured. These cells were chosen as they represent the most aggressive and most likely to recur endometrial cancer types. As shown in FIG. 4A (left panel), all cell lines tested expressed USP14 with HEC155 and ECC1 having the highest levels. Next. ECC1 and HEC155 endometrial cancer cells were exposed to increasing concentrations of the small-molecule inhibitor […] and the residual cell viability was measured after a period of 48 hours.
# (§13) In the clinical setting, recurrent endometrial cancer is usually resistant to chemotherapy. Previous studies have reported that among endometrial cancer cell lines, HEC155 and ECC1 have the highest levels of LCAM, a marker for endometrial cancer recurrence. […] Thus, the IC50 levels for carboplatin treatment of HEC155 and ECC1 cells was measured.
# [9] = test system: ubiquitin-dependent protein degradation in HEC155 cells; experiment: Western blot for accumulation of poly-ubiquitinated proteins, HEC155; assay type: cell-based
# Method: as §4, §5, §6
# [10] = test system: ECC1 endometrial cancer cell line; experiment: Cell viability assay (WST-1), ECC1; assay type: cell-based; conditions: for IC50: ECC1, 48 hours exposure
# Method: as §11, §12, §13
# [11] = test system: HEC155 endometrial cancer cells; experiment: Cell cycle distribution by propidium iodide flow cytometry, HEC155; assay type: cell-based; conditions: HEC155, 300 nM, 24 hours
# Method: as §1, §10
# [12] = test system: carboplatin sensitive cancer cells; experiment: Multi-step carboplatin chemoresistance model in vitro (Example 2); assay type: cell-based; conditions: 10 μM, two rounds over two weeks
# Method: Multi-step process leading to recurrence can be recapitulated in vitro and results with up-regulation of USP14. Carboplatin chemoresistance was recapitulated in vitro according to the model schematized in FIG. 9. Specifically, carboplatin sensitive cancer cells were exposed to two rounds of carboplatin treatment (10 μM) over the period of two weeks. The first round resulted with approx. 60% of cell death. The second round resulted with approx. 90% of cell death. This is consistent with the dramatic reduction in tumor burden in chemosensitive patients treated with neoadjuvant chemotherapy. […] As shown in FIG. 9 the chemotherapy surviving population was characterized by stem like giant, polyploidy, chemoresistant cells whose numbers remained similar over the course of the following two weeks. This population was the precursor of clones of cells that survived in presence of carboplatin. Strikingly, when the expression levels of USP14 and the […] marker vimentin were evaluated in the initial population (chemosensitive tumor) and in two of the chemoresistant clones isolated. USP14 overexpression is temporally associated to over-expression of the […] marker, vimentin.
# [13] = test system: ECC1 endometrial cancer cell line; experiment: Multi-step carboplatin chemoresistance model, ECC1; assay type: cell-based
# Text: USP14 is co-expressed with ETM makers during the multi-stage process leading to chemoresistance. Acquisition of aggressive phenotype and chemoresistance is a multi-stage process whereby the subpopulation of cells surviving drug treatment give rise to cells characterized by increased in migratory behavior, proliferation rate and chemoresistance via a transition accompanied by increase in stem cell and epithelial-mesenchymal transition (EMT) markers. This model was recapitulated in ECC1 endometrial cancer cell line and the temporal USP14 expression was evaluated during this multi-step process. Specifically. ECC1 cells were exposed to two rounds of carboplatin treatment (20 μM) over the period of two weeks. The first round resulted with approx. 60% of cell death. The second round resulted with approx. 90% of cell death. Consistent with what previously shown, the surviving population was characterized by giant, polyploidy, chemoresistant cells whose numbers remained similar over the course of the following two weeks. […] Next, the expression levels of USP14 and the EMT marker vimentin were evaluated in the initial population (chemosensitive tumor) and in two of the chemoresistant clones. USP14 overexpression is temporally associated to the expression of the EMT marker vimentin.
# [14] = read-out: IC50, inhibition of cell viability
# [15] = read-out: IC50 for carboplatin, cell viability
# [16] = ECC1, 20 μM, two rounds over two weeks
smiles,measurement,setting,value
"O=C1/C(=C/c2ccc([N+](=O)[O-])cc2)CNC/C1=C\c1ccc([N+](=O)[O-])cc1 [RA-9, (3E, 5E)-3,5-bis(nitrobenzylidene)piperidin-4-one]",effect on cell viability of chemoresistant ovarian cancer cells,[1],killed chemoresistant ovarian cancer cells
same,Caspase-3 activation,ovarian cancer cells,activation of Caspase-3
C=CC(=O)N1CC/C(=C\c2ccc(F)c([N+](=O)[O-])c2)C(=O)/C(=C/c2ccc(F)c([N+](=O)[O-])c2)C1 [VLX1570],Annexin V staining cells,"[2]; ECC1, 300 nM, 24 hours",increase of Annexin V staining cells
same,fraction of cells taking up propidium iodide,"[2]; ECC1, 300 nM, 24 hours",elevated
same,levels of active caspase-3,"[2]; ECC1, 24 hours, versus mock",increased levels of active caspase-3
same,inhibition of ubiquitin-dependent protein degradation (dose course),"[3]; ECC1, 0-150 μM, 24 hours",dose-dependent inhibition of ubiquitin-dependent protein degradation
same,start of accumulation of poly-ubiquitinated proteins after drug exposure,"[3]; ECC1, 150 nM",two
same,accumulation of poly-ubiquitinated proteins (time course),"[3]; ECC1, 150 nM, 0, 2, 8 or 12 hours",dose-dependent accumulation of poly-ubiquitinated proteins
same,"killing concentration, fold lower than the one required with carboplatin",[4]; carboplatin-resistant ES-2,approx. 10 fold
same,IC50,"[4]; carboplatin-resistant ES-2 clones, 48 hours, read-out: IC50, inhibition of cell viability",7.11 µM
same,"percentage of cells in the G2/M phase, treated versus control",[5],nearly double
same,Annexin V staining cells,"[6]; HEC155, 300 nM, 24 hours",increase of Annexin V staining cells
same,fraction of cells taking up propidium iodide,"[6]; HEC155, 300 nM, 24 hours",elevated
same,levels of active caspase-3,"[6]; HEC155, 24 hours, versus mock",increased levels of active caspase-3
same,"killing concentration, fold lower than the one required with carboplatin",[7]; carboplatin-resistant COV362,approx. 10 fold
same,IC50,"[7]; carboplatin-resistant COV362 clones, 48 hours, read-out: IC50, inhibition of cell viability",8.76 µM
same,"anti-proliferative concentration, times lower than that required for carboplatin",[8]; HEC155,500 times
same,IC50,[8]; [14],0.182 µM
same,inhibition of ubiquitin-dependent protein degradation (dose course),"[9]; HEC155, 0-250 μM, 24 hours",dose-dependent inhibition of ubiquitin-dependent protein degradation
same,start of accumulation of poly-ubiquitinated proteins after drug exposure,"[9]; HEC155, 250 nM",two
same,accumulation of poly-ubiquitinated proteins (time course),"[9]; HEC155, 250 nM, 0, 2, 8 or 12 hours",dose-dependent accumulation of poly-ubiquitinated proteins
same,"anti-proliferative concentration, times lower than that required for carboplatin",[10]; ECC1,800 times
same,IC50,[10]; [14],0.118 µM
same,percentage of cells in the G2/M phase versus controls,[11],increase in the percentage of cells in the G2/M phase
N.N.O=C([O-])C1(C(=O)[O-])CCC1.[Pt+2] [carboplatin],"decrease in carboplatin sensitivity, resistant versus sensitive cells","[4]; ES-2, 48 hours exposure",> 3 fold
same,"decrease in carboplatin sensitivity, resistant versus sensitive cells","[7]; COV-362, 48 hours exposure",> 4 fold
same,IC50,[8]; [15],77.5 µM
same,"cell death, first round of carboplatin treatment",[12],approx. 60%
same,"cell death, second round of carboplatin treatment",[12],approx. 90%
same,"cell death, first round of carboplatin treatment",[13]; [16],approx. 60%
same,"cell death, second round of carboplatin treatment",[13]; [16],approx. 90%
same,IC50 of chemoresistant clones as compared to the initial population,[13]; ECC1 chemoresistant clones,> 3 fold
same,IC50,[10]; [15],97.6 µM
